Measurements published in PMC3613087, “Aldose Reductase Inhibitory Activity of Compounds from Zea mays L” (BioMed Research International, 2013).
Like-named read-outs stand apart in the source and are kept apart here.

Columns and labels:
[1] = molecular target: T1, rat lens aldose reductase (RLAR) (Rattus norvegicus, UniProt P07943); experiment: Rat lens aldose reductase (RLAR) inhibitory assay, DL-glyceraldehyde as substrate; format: biochemical; settings: for inhibition at 1 µg/mL: concentration 1 μg/mL; for inhibition at 5 µg/mL: concentration 5 μg/mL; for inhibition at 10 µg/mL: read-out: Inhibition (%) of RLAR; for IC50: least-squares regression of log concentration vs inhibitory activity; for inhibition at 40 µg/mL: concentration 40 μg/mL
T1 construct: from tissue; host or cells: rat lens (Sprague-Dawley) homogenate, partially purified
Experimental: RLAR activity was assayed according to the methods described by Dufrane et al.. […] The rat lens homogenate was prepared according to the method of Hayman and Kinoshita with some modifications. […] The partially purified material was separated into 1.0 mL aliquots and stored at −40°C. […] Each 1.0 mL cuvette contained equal units of enzyme, 0.05 M sodium phosphate buffer (pH 6.2), and 0.3 mM NADPH with or without 10 mM substrate and inhibitor. For inhibition studies, concentrated stocks of AR inhibitors prepared in DMSO were used, and the final concentration of DMSO was not more than 1%.

[2] = test system: galactitol accumulation in rat erythrocytes; experiment: Blood culture and intracellular galactitol measurement; format: cell-based; settings: 30 mM galactose, 50 μg/mL compound, 3 h; for inhibition at 50 µg/mL: Rattus norvegicus, Erythrocyte
Experimental: Blood sample was collected in heparin-containing polypropylene tube from 10-week-old male rats. For sugar and sugar alcohol analysis, erythrocytes from heparinized blood were separated from the plasma and buffy coat by centrifuging at 2000 ×g for 10 min. The cells were washed thrice with normal saline (0.9% NaCl) at 4°C. In the final washing, the cells were centrifuged at 2000 ×g for 10 min to obtain a consistently packed cell preparation. The packed cells (1 mL) were then incubated in a Krebs-Ringer bicarbonate buffer (pH 7.4) containing 30 mM galactose in the presence or absence of samples at 37°C in 5% CO2 for 3 h. The erythrocytes were washed with cold saline by centrifuging at 2000 ×g for 10 min, precipitated by adding 6% of cold perchloric acid (3 mL), and centrifuged again at 2000 ×g for 10 min. The supernatant was neutralized with 2.5 M K2CO3 at 4°C and used for galactitol determination. HPLC analysis for sugar and sugar alcohol in blood was performed with this supernatant of red blood cell homogenate after being benzoylated.

[3] = molecular target: T2, recombinant human aldose reductase (rhAR) (Homo sapiens, UniProt P15121); experiment: Kinetics of rhAR by active compounds (Lineweaver-Burk plots); format: biochemical; settings: DL-glyceraldehyde 0.1-1.0 mM
T2 construct: purchased Wako Pure Chemical Industries (Osaka, Japan)
Experimental: Reaction mixtures consisted of 0.1 M potassium phosphate, 0.16 mM NADPH, and […] of rhAR with varied concentrations of substrate DL-glyceraldehyde and AR inhibitor in a total volume of 200 μL. Concentrations were ranged from 0.1 to 1.0 mM for DL-glyceraldehyde. rhAR activity was assayed spectrophotometrically by measuring the decrease in absorption of NADPH at 340 nm after substrate addition using Biotek Power Wave XS spectrophotometer (Biotek instruments, VT, USA). K m and V max of rhAR were determined with varying concentrations of DL-glyceraldehyde as a substrate in the absence and presence of different concentrations of inhibitor by Lineweaver-Burk double reciprocal plots. Inhibitory constant (K i) was derived by plotting slopes obtained from Lineweaver-Burk plots versus inhibitors concentration.

[4] = test system: galactitol accumulation in rat lens; experiment: Lens culture and intracellular galactitol measurement; format: cell-based; settings: 30 mM galactose, compound 5 μg/mL; for Galactitol content μg/lens wet weight (g): mean ± SD of triplicate; for inhibition at 5 µg/mL: Rattus norvegicus
Experimental: Lenses isolated from 10-week-old male rats were cultured for 6 d in TC-199 medium that contained 15% fetal bovine serum 100 U/mL penicillin and 0.1 mg/mL streptomycin under sterile conditions in an atmosphere of 5% CO2 and 95% air at 37°C. Samples were dissolved in DMSO. […] Each lens was placed in well containing 1.0 mL of medium. Lenses from each group were minced in 150 μL of phosphate-buffered saline on ice, homogenized by sonication, and centrifuged at 22.000 g for 10 min at 4°C. The supernatant was filtered through a membrane filter (Ultrafree-MC, nominal molecular weight limit 10,000; Millipore, Bedford, MA, USA) to remove proteins. HPLC analysis for sugar alcohol in lens was performed with this filtrate after being benzoylated.

[5] = concentration 10 μg/mL, mean of triplicate
[6] = read-out: IC50 (μg/mL) RLAR (converted)

Structure (SMILES)	inhibition at 1 µg/mL ([1]; mean of triplicate) [%]	inhibition at 5 µg/mL ([1]; mean of triplicate) [%]	inhibition at 10 µg/mL [1, 5] [%]	IC50 ([1]; read-out: IC50 (μM) RLAR) [µM]	IC50 [1, 6] [µM]	RLAR inhibitory activity (in words) [1]	inhibition at 40 µg/mL ([1]; mean of triplicate) [%]	Galactitol content (μM) in rat erythrocyte [2] [µM]	inhibition at 50 µg/mL [2] [%]	Inhibition type of rhAR [3]	Galactitol content μg/lens wet weight (g) [4]	inhibition at 5 µg/mL [4] [%]	inhibition at 10 µg/mL [1] [%]
O=C(O)c1c(O)cc(O)cc1O [2,4,6-trihydroxybenzoic acid (3), 2,4,6-trihydroxybenzoic acid]	16.9	48.1	73.7	34.8	34.8	–	–	–	–	–	–	–	–
COc1cc(/C=C/C(=O)O)ccc1O [Ferulic acid (5), ferulic acid]	11.2	49.8	77.2	21.9	21.8	–	–	–	–	–	–	–	–
O=c1c(O[C@@H]2O[C@H](CO)[C@@H](O)[C@H](O)[C@H]2O)c(-c2ccc(O)c(O)c2)oc2cc(O)cc(O)c12 [Hirsutrin (6), hirsutrin]	27.6	76.2	86.7	4.78	4.78	–	–	15.70	~32.5	competitive	558.92 ± 89.12 μg/lens wet weight (g)	~33.8	–
O=C(O)c1ccc(O)c(O)c1 [Protochatechuic acid (1), protocatechuic acid]	–	–	–	–	> 64.9	–	–	–	–	–	–	–	3.22
O=c1c(O)c(-c2ccc(O)c(O)c2)oc2cc(O)cc(O)c12 [Quercetin, quercetin, reference compound]	30.3	67.9	83	–	–	–	–	16.15	30.5	–	448.81 ± 69.43 μg/lens wet weight (g)	46.8	–
COc1cc(C(=O)O)ccc1O [Vanillic acid (2), vanillic acid]	–	–	20.3	–	> 59.5	–	–	–	–	–	–	–	–
O=C(O)C=Cc1ccc(O)cc1 [p-hydroxycinnamic acid (4), p-hydroxycinnamic acid]	13.8	43.7	77.8	36.7	36.7	–	–	–	–	–	–	–	–

Continued, in another order:

inhibition at 1 µg/mL ([1]; mean of triplicate) [%]	inhibition at 5 µg/mL ([1]; mean of triplicate) [%]	inhibition at 10 µg/mL [1, 5] [%]	IC50 ([1]; read-out: IC50 (μM) RLAR) [µM]	IC50 [1, 6] [µM]	RLAR inhibitory activity (in words) [1]	inhibition at 40 µg/mL ([1]; mean of triplicate) [%]	Structure (SMILES)	Galactitol content (μM) in rat erythrocyte [2] [µM]	inhibition at 50 µg/mL [2] [%]	Inhibition type of rhAR [3]	Galactitol content μg/lens wet weight (g) [4]	inhibition at 5 µg/mL [4] [%]	inhibition at 10 µg/mL [1] [%]
16.4	73.7	89.7	5.67	5.66	–	–	COc1cc(-c2oc3cc(O)cc(O)c3c(=O)c2O[C@@H]2O[C@H](CO)[C@@H](O)[C@H](O)[C@H]2O)ccc1O [3′-methoxyhirsutrin (7), 3′-methoxyhirsutrin]	20.19	~12	uncompetitive	828.35 ± 73.27 μg/lens wet weight (g)	1.86	–
19	47.8	68	11.7	11.7	–	–	O=C(O)CC(=O)OC[C@H]1O[C@@H](Oc2cc3c(O)cc(O)cc3[o+]c2-c2ccc(O)c(O)c2)[C@H](O)[C@@H](O)[C@@H]1O [Cyanidin-3-(6′′-malonylglucoside) (11), cyanidin 3-(6′′-malonylglucoside)]	–	–	–	–	–	–
–	–	–	–	> 89	did not RLAR inhibitory activity	47.7	OC[C@H]1O[C@@H](Oc2cc3c(O)cc(O)cc3[o+]c2-c2ccc(O)c(O)c2)[C@H](O)[C@@H](O)[C@@H]1O [Cyanidin-3-glucoside (8), cyanidin-3-glucoside]	–	–	–	–	–	–
–	–	–	–	> 92.3	did not RLAR inhibitory activity	13.2	OC[C@H]1O[C@@H](Oc2cc3c(O)cc(O)cc3[o+]c2-c2ccc(O)cc2)[C@H](O)[C@@H](O)[C@@H]1O [Pelargonidin-3-glucoside (9), pelargonidin-3-glucoside]	–	–	–	–	–	–
–	–	–	–	> 86.3	did not RLAR inhibitory activity	37	COc1cc(-c2[o+]c3cc(O)cc(O)c3cc2O[C@@H]2O[C@H](CO)[C@@H](O)[C@H](O)[C@H]2O)ccc1O [Peonidin-3-glucoside (10), peonidin-3-glucoside]	–	–	–	–	–	–
–	–	–	–	> 19.3	did not RLAR inhibitory activity	–	O=C(O)CC(=O)OC[C@H]1O[C@@H](Oc2cc3c(O)cc(O)cc3[o+]c2-c2ccc(O)cc2)[C@H](O)[C@@H](O)[C@@H]1O [pelargonidin 3-(6′′-malonylglucoside)]	–	–	–	–	–	–
